In paper PMC8405091, “Microwave-assisted Phospha-Michael addition reactions in the 13α-oestrone series and in vitro antiproliferative properties” (Journal of Enzyme Inhibition and Medicinal Chemistry, 2021):

Columns and labels:
[1] = tested on: non-cancerous mouse embryo fibroblast (NIH/3T3) cells; assay: MTT assay on non-cancerous fibroblasts (tumour selectivity); assay type: cell-based; conditions: Mus musculus, NIH3T3; for inhibition at 10 µM: NIH/3T3, 10 μM; for inhibition at 10 µM / inhibition at 30 µM: 72 h, read-out: Growth inhibition, % ± SEM; for inhibition at 30 µM: NIH/3T3, 30 μM; for IC50: NIH/3T3, 72 h, read-out: calculated IC50 value
Procedure: The antiproliferative properties of the newly synthesized compounds (9–20) and their starting materials (4 and 5) were determined on a panel of human adherent cancer cell lines. MCF-7, MDA-MB-231 and T47D were isolated from breast cancers differing in biochemical background, while A2780 cells were isolated from ovarian cancer. HeLa and SiHa are cervical cancer cell lines positive for HPV-18 and HPV-16, respectively, while C33-A cervical cancer cells are negative for HPV. Moreover, two oropharyngeal cancer cell lines were also utilized: the HPV-negative UPCI-SCC-131 and HPV-16 positive UPCI-SCC-154. The cancer selectivity of compounds was tested on the non-cancerous mouse embryo fibroblast cell line NIH/3T3. All cell lines were purchased from European Collection of Cell Cultures (ECCAC, Salisbury, UK) exception for SiHa and C33-A (American Tissue Culture Collection, Manassas, VA, USA) and HN-SCC-131 and UPCI-SCC-154 (German Collection of Microorganisms and Cell Cultures GmbH, Braunschweig, Germany). Cells were cultivated in minimal essential medium supplemented with 10% fetal bovine serum, 1% non-essential amino acids and an antibiotic–antimycotic mixture. The medium of oropharyngeal cancer cells additionally contained 2.0 mM L-glutamine. All media and supplements were obtained from Lonza Group Ltd., Basel, Switzerland. Near-confluent cancer cells were seeded onto a 96-well microplate at a density of 5,000 cells/well, except for C33-A which were seeded at 10,000/well. After overnight standing, new medium containing the tested compounds at 10 and 30 µM final concentration was added. After incubation for 72 h at 37 °C in humidified air containing 5% CO2, the living cells were assayed by the addition of 20 μL of 5 mg/ml 3-(4,5-dimethylthiazol-2-yl)-2,5-diphenyltetrazolium bromide (MTT) solution. MTT was converted by intact mitochondrial reductase and precipitated as purple crystals during a 4-h contact period. The medium was next removed and the precipitated formazan crystals were dissolved in 100 μL of DMSO during a 60-min period of shaking at 37 ^оC.
All in vitro experiments were carried out twice with five parallels. Stock solutions of the tested substances (10 mM) were prepared in DMSO. […] Cisplatin (Ebewe Pharma GmbH, Unterach, Austria) was used as positive control.

HeLa cells = assay: MTT antiproliferative assay, HeLa; assay type: cell-based, human; conditions: Homo sapiens, 72 h; for inhibition at 10 µM / inhibition at 30 µM: read-out: Growth inhibition, % ± SEM; for IC50: read-out: calculated IC50 value
Method in brief: (§1)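 Adherent human cancer lines exposed 72 h to 10 or 30 µM compound after overnight attachment. Living cells quantified by mitochondrial MTT conversion. Cisplatin served as positive control.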

SiHa cells = assay: MTT antiproliferative assay, SiHa; assay type: cell-based, human; conditions: Homo sapiens, 72 h; for inhibition at 10 µM / inhibition at 30 µM: read-out: Growth inhibition, % ± SEM; for IC50: read-out: calculated IC50 value
Method in brief: as §1

T47D cells = assay: MTT antiproliferative assay, T47D; assay type: cell-based, human; conditions: Homo sapiens, 72 h; for inhibition at 10 µM / inhibition at 30 µM: read-out: Growth inhibition, % ± SEM; for IC50: read-out: calculated IC50 value
Method in brief: as §1

MCF-7 cells = assay: MTT antiproliferative assay, MCF-7; assay type: cell-based, human; conditions: Homo sapiens, MCF7; for inhibition at 10 µM: MCF-7, 10 μM; for inhibition at 10 µM / inhibition at 30 µM: 72 h, read-out: Growth inhibition, % ± SEM; for inhibition at 30 µM: MCF-7, 30 μM; for IC50: MCF-7, 72 h, read-out: calculated IC50 value
Method in brief: as §1

C33-A cells = assay: MTT antiproliferative assay, C33-A; assay type: cell-based, human; conditions: Homo sapiens, C-33-A, C33-A, 72 h; for inhibition at 10 µM / inhibition at 30 µM: read-out: Growth inhibition, % ± SEM; for IC50: read-out: calculated IC50 value
Method in brief: as §1

UPCI-SCC-154 cells = assay: MTT antiproliferative assay, UPCI-SCC-154; assay type: cell-based, human; conditions: Homo sapiens; for inhibition at 10 µM: UPCI-SCC-154, 10 μM; for inhibition at 10 µM / inhibition at 30 µM: 72 h, read-out: Growth inhibition, % ± SEM; for inhibition at 30 µM: UPCI-SCC-154, 30 μM; for IC50: UPCI-SCC-154, 72 h, read-out: calculated IC50 value
Method in brief: as §1

UPCI-SCC-131 cells = assay: MTT antiproliferative assay, UPCI-SCC-131; assay type: cell-based, human; conditions: Homo sapiens; for inhibition at 10 µM: UPCI-SCC-131, 10 μM; for inhibition at 10 µM / inhibition at 30 µM: 72 h, read-out: Growth inhibition, % ± SEM; for inhibition at 30 µM: UPCI-SCC-131, 30 μM; for IC50: UPCI-SCC-131, 72 h, read-out: calculated IC50 value
Method in brief: as §1

MDA-MB-231 cells = assay: MTT antiproliferative assay, MDA-MB-231; assay type: cell-based, human; conditions: Homo sapiens; for IC50: MDA-MB-231, 72 h, read-out: calculated IC50 value; for inhibition at 10 µM: MDA-MB-231, 10 μM; for inhibition at 10 µM / inhibition at 30 µM: 72 h, read-out: Growth inhibition, % ± SEM; for inhibition at 30 µM: MDA-MB-231, 30 μM
Method in brief: as §1

A2780 cells = assay: MTT antiproliferative assay, A2780; assay type: cell-based, human; conditions: Homo sapiens; for IC50: A2780, 72 h, read-out: calculated IC50 value; for inhibition at 10 µM: A2780, 10 μM; for inhibition at 10 µM / inhibition at 30 µM: 72 h, read-out: Growth inhibition, % ± SEM; for inhibition at 30 µM: A2780, 30 μM
Method in brief: as §1

C=C1C[C@H]2[C@@H]3CCc4cc(OC)ccc4[C@H]3CC[C@@]2(C)C1=O [Compound 4, 3-methoxy-16-methylene derivative]
inhibition at 10 µM [1]: 101.1 ± 0.67%
inhibition at 30 µM [1]: 100.9 ± 0.71%
IC50 [1]: 2.79 µM
inhibition at 10 µM (HeLa cells): 85.1 ± 2.44%
inhibition at 30 µM (HeLa cells): 99.43 ± 0.28%
IC50 (HeLa cells): 4.45 µM
inhibition at 10 µM (SiHa cells): 97.44 ± 0.54%
inhibition at 30 µM (SiHa cells): 99.28 ± 0.42%
IC50 (SiHa cells): 3.31 µM
inhibition at 10 µM (T47D cells): 99.68 ± 0.74%
inhibition at 30 µM (T47D cells): 99.92 ± 0.71%
IC50 (T47D cells): 3.46 µM
inhibition at 10 µM (MCF-7 cells): 99.52 ± 0.51%
inhibition at 30 µM (MCF-7 cells): 99.83 ± 0.44%
IC50 (MCF-7 cells): 3.7 µM
inhibition at 10 µM (C33-A cells): 99.57 ± 0.61%
inhibition at 30 µM (C33-A cells): 99.55 ± 0.39%
IC50 (C33-A cells): 3.6 µM
inhibition at 10 µM (UPCI-SCC-154 cells): 97.3 ± 1.1%
inhibition at 30 µM (UPCI-SCC-154 cells): 97.81 ± 0.65%
IC50 (UPCI-SCC-154 cells): 5.15 µM
inhibition at 10 µM (UPCI-SCC-131 cells): 99.8 ± 0.36%
inhibition at 30 µM (UPCI-SCC-131 cells): 99.88 ± 0.39%
IC50 (UPCI-SCC-131 cells): 3.17 µM
IC50 (MDA-MB-231 cells): 3.97 µM
inhibition at 10 µM (MDA-MB-231 cells): 99.97 ± 0.71%
inhibition at 30 µM (MDA-MB-231 cells): 94.6 ± 2.26%
IC50 (A2780 cells): 6.24 µM
inhibition at 10 µM (A2780 cells): 96.9 ± 1.52%
inhibition at 30 µM (A2780 cells): 100.5 ± 0.22%

C=C1C[C@H]2[C@@H]3CCc4cc(OCc5ccccc5)ccc4[C@H]3CC[C@@]2(C)C1=O [Compound 5]
inhibition at 10 µM [1]: 100.8 ± 0.16%
inhibition at 30 µM [1]: 100.3 ± 0.25%
IC50 [1]: 2.74 µM
inhibition at 10 µM (HeLa cells): 75.1 ± 3.73%
inhibition at 30 µM (HeLa cells): 99.65 ± 0.25%
IC50 (HeLa cells): 6.99 µM
inhibition at 10 µM (SiHa cells): 98.98 ± 0.26%
inhibition at 30 µM (SiHa cells): 99.97 ± 0.42%
IC50 (SiHa cells): 2.3 µM
inhibition at 10 µM (T47D cells): 100.2 ± 0.28%
inhibition at 30 µM (T47D cells): 101.3 ± 0.47%
IC50 (T47D cells): 3.47 µM
inhibition at 10 µM (MCF-7 cells): 99.7 ± 0.43%
inhibition at 30 µM (MCF-7 cells): 100.6 ± 0.31%
IC50 (MCF-7 cells): 3.35 µM
inhibition at 10 µM (C33-A cells): 93.9 ± 2.56%
inhibition at 30 µM (C33-A cells): 100 ± 0.23%
IC50 (C33-A cells): 3.75 µM
inhibition at 10 µM (UPCI-SCC-154 cells): 96.4 ± 0.89%
inhibition at 30 µM (UPCI-SCC-154 cells): 100.3 ± 0.82%
IC50 (UPCI-SCC-154 cells): 4.5 µM
inhibition at 10 µM (UPCI-SCC-131 cells): 99.54 ± 0.33%
inhibition at 30 µM (UPCI-SCC-131 cells): 99.94 ± 0.44%
IC50 (UPCI-SCC-131 cells): 2.38 µM
IC50 (MDA-MB-231 cells): 4.07 µM
inhibition at 10 µM (MDA-MB-231 cells): 97.2 ± 1.46%
inhibition at 30 µM (MDA-MB-231 cells): 98.57 ± 0.89%
IC50 (A2780 cells): 6.7 µM
inhibition at 10 µM (A2780 cells): 94.8 ± 2.13%
inhibition at 30 µM (A2780 cells): 100.9 ± 0.18%
